Values quoted from earlier work in patent US20220056157A1, “PROCESS FOR FRACTIONATING AN ESTERIFIED CELLULOSE ETHER” (DOW GLOBAL TECHNOLOGIES LLC, priority 2015, published 2022).
Values after ≈ are worked out from the molar mass of the structure shown.

water solubility: 0.13 ng/mL (≈ 0.216 nM)
SMILES: CCOC(=O)N1c2ccc(C(F)(F)F)cc2[C@@H](N(Cc2cc(C(F)(F)F)cc(C(F)(F)F)c2)C(=O)OC)C[C@H]1CC [Torcetrapib]
